# B1: AtEIN2^479-1294 (domain or fragment)
# chain: NALSYPSVQEEEIERTETRRNEDESIVRLESRVKDQLDTTSVTSSVYDLPENILMTDQEIRSSPPEERELDVKYSTSQVSSLKEDSDVKEQSVLQSTVVNEVSDKDLIVETKMAKIEPMSPVEKIVSMENNSKFIEKDVEGVSWETEEATKAAPTSNFTVGSDGPPSFRSLSGEGGSGTGSLSRLQGLGRAARRHLSAILDEFWGHLYDFHGQLVAEARAKKLDQLFGTDQKSASSMKADSFGKDISSGYCMSPTAKGMDSQMTSSLYDSLKQQRTPGSIDSLYGLQRGSSPSPLVNRMQMLGAYGNTTNNNNAYELSERRYSSLRAPSSSEGWEHQQPATVHGYQMKSYVDNLAKERLEALQSRGEIPTSRSMALGTLSYTQQLALALKQKSQNGLTPGPAPGFENFAGSRSISRQSERSYYGVPSSGNTDTVGAAVANEKKYSSMPDISGLSMSARNMHLPNNKSGYWDPSSGGGGYGASYGRLSNESSLYSNLGSRVGVPSTYDDISQSRGGYRDAYSLPQSATTGTGSLWSRQPFEQFGVAERNGAVGEELRNRSNPINIDNNASSNVDAEAKLLQSFRHCILKLIKLEGSEWLFGQSDGVDEELIDRVAAREKFIYEAEAREINQVGHMGEPLISSVPNCGDGCVWRADLIVSFGVWCIHRVLDLSLMESRPELWGKYTYVLNRLQGVIDPAFSKLRTPMTPCFCLQIPASHQRASPTSANGMLPPAAKPAKGKCTTAVTLLDLIKDVEMAISCRKGRTGTAAGDVAFPKGKENLASVLKRYKRRLSNKPVGMNQDGPGSRKNVTAYGSLG
# Experiments:
# flower senescence = details: cited from earlier work; for prevention of the effects of exogenous ethylene on flower senescence: during transport and storage
# ethylene biosynthesis = details: cited from earlier work
# Source text: Consequently, a number of commercial products based o ...
# [1] = tested on: cut carnations (Dianthus caryophyllus); experiment: Senescence / vase life of cut carnations; type: in vivo
# Source text: To clarify whether NOP-1 also has the potential to serve as an inhibitor of senescence in cut flowers, we applied the peptide on cut carnations (Dianthus caryophyllus) and analyzed the effect on floral senescence in this model ethylene response system[9],[13],[17],[30]. In analogy to treatment with the chemical senescence inhibitor STS containing silver ions as active ingredient which target plant ethylene receptors[31] the peptide was directly supplied to the vase water. Senescence was monitored visually throughout the experiment and quantified by changes observed in petal size and/or color (Fig. 1A,B). […] To further substantiate the effect of the peptide biological on floral senescence observed with the carnation model system, we used roses as another species of highly ethylene sensitive ornamental plants. […] The untreated controls completely ended their vase life on day 9 due to these morphological changes.
# Figure 1 Effect of small molecule inhibitors of ethylene signaling on flower senescence of cut carnations. (A) Visual images of carnation cut flowers treated with senescence inhibitor silver nitrate or peptide NOP-1. Representative photos of carnation petals treated with 1 mM silver nitrate or 0.5 mM NOP-1 on DAT 0, 3, 6, 9, 12 and 15. […] (B) Quantitative analysis of flower size (left) and petal color change (right) of carnation flowers after treatment with silver salt, NOP-1 peptide or buffer-only. […]
# Cut flowers of carnations (Dianthus caryophyllus) and rose (Rosa hybrida), graded for marketable quality, were obtained from a local flower producer. […] Progression of senescence was recorded photographically for a period of 15 days. […] Changes in petal size and color were quantified using ImageJ (32 bit v1.51t.). Relative discoloration of petals was quantified by drawing multiple lines across each flower (petals only) and calculating the average values for red (R), green (G) and blue (B). […] Relative size of flowers was quantified using a macro that specifically recognizes the flower (petals + sepals) but not the flower stem with flower size in pixel² as the output. […]
# cut roses (Rosa hybrida) = experiment: Senescence / vase life of cut roses; type: in vivo; details: 1 mM silver nitrate or 0.5 mM NOP-1 in vase water; untreated controls ended vase life on day 9; six flowers per treatment
# Source text: To clarify whether NOP-1 also has the potential to serve as an inhibitor of senescence in cut flowers, we applied the peptide on cut carnations (Dianthus caryophyllus) and analyzed the effect on floral senescence in this model ethylene response system[9],[13],[17],[30]. In analogy to treatment with the chemical senescence inhibitor STS containing silver ions as active ingredient which target plant ethylene receptors[31] the peptide was directly supplied to the vase water. Senescence was monitored visually throughout the experiment and quantified by changes observed in petal size and/or color (Fig. 1A,B). […]
# Figure 2 Effect of small molecule inhibitors of ethylene signaling on flower senescence of cut roses. […] (B) Quantitative analysis of color change in petals after treatment with silver salt, NOP-1 peptide or buffer-only. […]
# Cut flowers of carnations (Dianthus caryophyllus) and rose (Rosa hybrida), graded for marketable quality, were obtained from a local flower producer. […] Progression of senescence was recorded photographically for a period of 15 days. […] Changes in petal size and color were quantified using ImageJ (32 bit v1.51t.). Relative discoloration of petals was quantified by drawing multiple lines across each flower (petals only) and calculating the average values for red (R), green (G) and blue (B). […]
# [2] = biological target: Dianthus caryophyllus ethylene receptor DcETR1 (Dianthus caryophyllus); experiment: MST; NOP-1 unlabelled, titrated from 100 µM to 3 nM in 100 mM potassium phosphate buffer, 300 mM NaCl, 0.015% FosCholine-16, to 50 nM Alexa488-labelled DcETR1; Monolith NT.115, 50% MST power; triplicates
# Sequence of Dianthus caryophyllus ethylene receptor DcETR1 (Dianthus caryophyllus) (Q9M7M1 other isoform, or with tags, fused parts or gaps): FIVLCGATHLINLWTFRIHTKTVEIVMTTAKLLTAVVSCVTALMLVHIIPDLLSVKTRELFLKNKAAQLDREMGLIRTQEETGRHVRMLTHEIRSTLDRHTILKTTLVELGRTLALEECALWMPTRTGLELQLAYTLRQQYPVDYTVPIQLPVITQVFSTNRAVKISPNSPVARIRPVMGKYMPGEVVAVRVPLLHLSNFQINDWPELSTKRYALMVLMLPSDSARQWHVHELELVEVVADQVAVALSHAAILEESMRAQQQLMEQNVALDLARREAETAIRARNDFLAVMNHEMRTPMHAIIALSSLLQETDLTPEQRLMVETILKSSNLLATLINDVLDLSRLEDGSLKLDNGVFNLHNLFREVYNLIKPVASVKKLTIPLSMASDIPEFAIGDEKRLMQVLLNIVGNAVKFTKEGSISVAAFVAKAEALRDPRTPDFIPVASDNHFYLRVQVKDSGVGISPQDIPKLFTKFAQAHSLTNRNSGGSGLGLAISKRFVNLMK
# [3] = biological target: Dianthus caryophyllus ethylene receptor DcETR1 (Dianthus caryophyllus); experiment: MST; AtEIN2^479-1294 unlabelled, titrated from 1457.5 nM to 0.7 nM in 50 mM potassium phosphate (pH 7.8), 300 mM NaCl, 0.015% FosCholine-16, to 50 nM Alexa488-labelled DcETR1; Monolith NT.115, 60% MST power; triplicates
# [4] = tested on: carnation ethylene receptor DcETR1; experiment: Microscale thermophoresis binding to carnation ethylene receptor DcETR1; design: species or system Dianthus caryophyllus; details: MST; denatured using 2% (w/v) SDS and 40 mM DTT in the assay buffer; triplicates
# Source text: To elucidate the mode of action of NOP-1 on flower senescence and to determine whether the peptide biological works by the same molecular mechanism as determined for NOP-1 controlled ripening delay, we initiated interaction studies of the carnation ethylene receptor DcETR1, the central regulator of the ethylene signaling cascade EIN2 and the NOP-1 peptide. To this end, DcETR1 was cloned in E. coli, expressed and purified according to protocols established in our lab[32] for ethylene receptors from Arabidopsis thaliana, Physcomitrella patens, tomato and apple (Supplementary Fig. S1). […] To determine binding affinity and dissociation constants of the purified recombinant proteins and the NOP-1 peptide we used microscale thermophoresis. […] Consequently, targeting this interaction by small-molecule modulators has the potential to shut down ethylene signaling and related plant responses. Therefore, we tested binding of the ripening delaying peptide NOP-1 identified in previous studies to target the ETR1-EIN2 complex with our purified carnation receptor DcETR1. […] The precise interaction site of NOP-1 at the Arabidopsis ETR1 receptor was recently resolved in our lab by molecular and computational studies. […]
# [5] = literature, reference not given
molecule,measurement,setting,value
"CC1=CC1 [1-MCP, 1-methylcyclopropene]",inhibition of ethylene action at 0 °C,flower senescence; 0 °C,almost no inhibition
same,inhibition of ethylene action at 20 °C,flower senescence; 20 °C,complete inhibition
same,delay of flower senescence on daily application,"flower senescence; applied on a daily basis, gaseous",significantly delayed flower senescence
same,effect of repetitive treatments on vase life and floral senescence of cut flowers,flower senescence; repetitive treatments with the gaseous inhibitor,marked increase in vase life and efficiently blocked floral senescence of cut flower
same,duration of senescence control compared with silver ions,"flower senescence; single treatment, literature, reference not given",does not control senescence for as long as silver ions
same,efficiency as ethylene action inhibitor,flower senescence; very small concentrations,highly efficient at very small concentrations
"NOCC(=O)O [AOA, amino-oxyacetic acid]",blocking of ethylene production that accompanies senescence,ethylene biosynthesis,effective in blocking ethylene production
same,prevention of the effects of exogenous ethylene on flower senescence,flower senescence; [5],ineffective
"NCCO/C=C/[C@H](N)C(=O)O [AVG, amino-ethoxyvinyl glycine]",blocking of ethylene production that accompanies senescence,ethylene biosynthesis,effective in blocking ethylene production
same,prevention of the effects of exogenous ethylene on flower senescence,flower senescence; [5],ineffective
"O=[N+]([O-])[O-].[Ag+] [silver salt, silver nitrate]","efficacy compared with the other treatment, cut carnations (in words)","[1]; 0.5 mM NOP-1 vs 1 mM silver salt (AgNO3), entire trial period",noticeably more efficient in extending the vase life of cut carnations than the peptide biological
same,"signs of petal senescence after 15 days, cut carnations","[1]; 1 mM silver salt (AgNO3) in vase water, 50 mM Tris/Acetic acid pH 8, 15 days, six flowers",almost no signs of senescence after 15 days
same,delay of petal senescence in cut carnations (in words),"[1]; 1 mM silver salt (AgNO3) in vase water, 50 mM Tris/Acetic acid pH 8, six flowers, vs buffer controls senescent after 6 days",delays the appearance of these morphological manifestations by several days
same,"prolongation of vase life relative to buffer controls, cut roses",cut roses (Rosa hybrida),6 to 8 days
NOP-1 peptide,Kd,[2],3490 nM
B1,Kd,[3],136 nM
same,interaction with chemically denatured DcETR1 (negative control),[4],no interaction
